Test results from ChEMBL document CHEMBL3885861, “Open TG-GATES”.

Species: Rattus norvegicus
Assay: Open TG-GATES - Regimen: Daily Repeat
Type: toxicity, organism-based, Sprague-Dawley
Set-up: regimen Daily Repeat, gender Male, age 6 weeks
Conditions: in vivo, po, 3 mg/kg, route gavage, dose level Low; for APTT / Bas / Eos / Fbg / Hb / Ht / Lym / MCH / MCHC / MCV / Mono / Neu / PT / Plat / RBC / Ret / WBC: tissue Blood
[1] = 72 h, tissue Kidney, time 3 day
[2] = 72 h, tissue Plasma, time 3 day

Structure (SMILES): Cn1cnc([N+](=O)[O-])c1Sc1ncnc2nc[nH]c12 [AZATHIOPRINE]
- TERMINAL_BW (72 h, time 3 day): 215.2 g
- APTT (72 h, time 3 day): 20.9 s
- Bas (72 h, time 3 day): 0%
- Eos (72 h, time 3 day): 0.4%
- Fbg (72 h, time 3 day): 312.4 mg/dL
- Hb (72 h, time 3 day): 13 g/dL
- Ht (72 h, time 3 day): 38.6%
- Lym (72 h, time 3 day): 83.6%
- MCH (72 h, time 3 day): 22 pg
- MCHC (72 h, time 3 day): 33.6%
- MCV (72 h, time 3 day): 65.4 fL
- Mono (72 h, time 3 day): 1.8%
- Neu (72 h, time 3 day): 13%
- PT (72 h, time 3 day): 16.2 s
- Plat (72 h, time 3 day): 125.6 x10_4/uL
- RBC (72 h, time 3 day): 590 x10_4/ul
- Ret (72 h, time 3 day): 7.5%
- WBC (72 h, time 3 day): 81.3 x10_2/uL
- KIDNEY_L [1]: 1 g
- KIDNEY_R [1]: 1 g
- KIDNEY_TOTAL [1]: 1.9 g
- LIVER (72 h, tissue Liver, time 3 day): 10.5 g
- A/G [2]: 1.3
- ALP [2]: 1666 IU/L
- ALT [2]: 45 IU/L
- AST [2]: 73.2 IU/L
- BUN [2]: 17.6 mg/dL
- CRE [2]: 0.1 mg/dL
- Ca [2]: 11.3 mg/dL
- Cl [2]: 106.6 meq/L
- DBIL [2]: 0 mg/dL
- GLC [2]: 188.8 mg/dL
- IP [2]: 6.7 mg/dL
- K [2]: 4.4 meq/L
- LDH [2]: 192.8 IU/L
- Na [2]: 143.4 meq/L
- PL [2]: 142.8 mg/dL
- RALB [2]: 3.1 g/dL
- TBIL [2]: 0.008 mg/dL
- TC [2]: 73.8 mg/dL
- TG [2]: 85 mg/dL
- TP [2]: 5.6 g/dL
- gamma-GTP [2]: 1 IU/L
- TERMINAL_BW ([…], time 7 day): 233.9 g
- TERMINAL_BW ([…], time 14 day): 269.8 g
- TERMINAL_BW ([…], time 28 day): 343.6 g
- APTT ([…], time 7 day): 21.4 s
- Bas ([…], time 7 day): 0%
- Eos ([…], time 7 day): 1%
- Fbg ([…], time 7 day): 312.6 mg/dL
- Hb ([…], time 7 day): 14 g/dL
- Ht ([…], time 7 day): 40.2%
- Lym ([…], time 7 day): 79%
- MCH ([…], time 7 day): 21.4 pg
- MCHC ([…], time 7 day): 34.9%
- MCV ([…], time 7 day): 61.3 fL
- Mono ([…], time 7 day): 2.2%
- Neu ([…], time 7 day): 17%
- PT ([…], time 7 day): 15.8 s
- Plat ([…], time 7 day): 115.5 x10_4/uL
- RBC ([…], time 7 day): 655.8 x10_4/ul
- Ret ([…], time 7 day): 5.5%
- WBC ([…], time 7 day): 121.2 x10_2/uL
- APTT ([…], time 14 day): 22.5 s
- Bas ([…], time 14 day): 0%
- Eos ([…], time 14 day): 0.8%
- Fbg ([…], time 14 day): 325.2 mg/dL
- Hb ([…], time 14 day): 14.6 g/dL
- Ht ([…], time 14 day): 41%
- Lym ([…], time 14 day): 77.4%
- MCH ([…], time 14 day): 21.4 pg
- MCHC ([…], time 14 day): 35.7%
- MCV ([…], time 14 day): 59.9 fL
- Mono ([…], time 14 day): 1.8%
- Neu ([…], time 14 day): 19%
- PT ([…], time 14 day): 16.3 s
- Plat ([…], time 14 day): 113.2 x10_4/uL
- RBC ([…], time 14 day): 684.8 x10_4/ul
- Ret ([…], time 14 day): 3.6%
- WBC ([…], time 14 day): 82.1 x10_2/uL
- APTT ([…], time 28 day): 24.6 s
- Bas ([…], time 28 day): 0%
- Eos ([…], time 28 day): 1%
- Fbg ([…], time 28 day): 302.2 mg/dL
- Hb ([…], time 28 day): 14.6 g/dL
- Ht ([…], time 28 day): 42.3%
